The values that follow come from ChEMBL document CHEMBL3997802, “Design, Synthesis, and Evaluation of Isaindigotone Derivatives To Downregulate c-myc Transcription via Disrupting the Interaction of NM23-H2 with G-Quadruplex” (J Med Chem, 2017).

The nature of experiment [1]: Inhibition of 5'-biotin-labeled c-Myc Pu18 G-quadruplex DNA (unknown origin) interaction with His-tagged NM23-H2 assessed as ratio of Kd for NM23-H2-DNA complex in presence of compound to Kd for […]-DNA complex in absence of compound at 20 uM preincubated with NM23-H2 for 1 hr followed by addition of DNA measured after overnight incubation by ELISA.
The nature of experiment [2]: Inhibition of 5'-biotin-labeled c-Myc Pu18 G-quadruplex DNA (unknown origin) interaction with His-tagged NM23-H2 at 20 uM preincubated with NM23-H2 for 1 hr followed by addition of DNA measured after overnight incubation by ELISA.
Experiment [3] is described as follows: Inhibition of thiazole orange binding to c-Myc Pu18 G-quadruplex DNA (unknown origin) at 10 uM after 30 secs by fluorescence spectrophotometric method.
Experiment [4] in a line: Inhibition of thiazole orange binding to c-Myc Pu27 G-quadruplex DNA (unknown origin) at 10 uM after 30 secs by fluorescence spectrophotometric method.
Experiment [5] has as its target T1, Nucleoside diphosphate kinase B (Homo sapiens, UniProt P22392). The experiment in a line: Binding affinity to NT647-labeled His-tagged NM23-H2 (unknown origin) expressed in Escherichia coli BL21(DE3) up to 500 uM after 30 mins by microscale thermophoresis method.
Experiment [6] in a line: Stabilization of 5'-FAM/3'-TAMRA labeled c-Myc Pu18 G-quadruplex DNA (unknown origin) assessed as change in melting temperature at 1 uM after overnight incubation by FRET assay.
Experiment [7] addresses T1, Nucleoside diphosphate kinase B. Nature of the experiment: Binding affinity to NT647-labeled His-tagged NM23-H2 (unknown origin) expressed in Escherichia coli BL21(DE3) after 30 mins by microscale thermophoresis method.
Experiment [8] is filed under the species Homo sapiens. Nature of the experiment: Inhibition of NM23-H2 binding to c-Myc promoter DNA in human SiHa cell nuclear extract at 4.85 to 9.7 uM after 4 days by ChIP analysis.
For experiment [9], the species on record is Homo sapiens. Nature of the experiment: Inhibition of NM23-H2 binding to c-Myc promoter DNA in human SiHa cell nuclear extract at 1.3 to 2.6 uM after 4 days by ChIP analysis.

Molecules are shown by their SMILES. Active and inactive are the calls of the source. The rule behind the calls is not given here. Where only a bound is given, the exact number is not on record here.

T1 sequence (P22392 whole entry): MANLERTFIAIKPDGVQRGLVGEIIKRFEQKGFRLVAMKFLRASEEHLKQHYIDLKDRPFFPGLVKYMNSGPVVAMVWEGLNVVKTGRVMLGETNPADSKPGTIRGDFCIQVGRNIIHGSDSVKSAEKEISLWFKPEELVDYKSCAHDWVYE

On to `CCN(CC)CCNC(=O)c1ccc(/C=C2\CCn3c2nc2cc(N4CCN(C)CC4)c(F)cc2c3=O)cc1`, for which, in experiment [1], the Ratio was 2.7.
Regarding `CCN(CC)CCNC(=O)c1ccc(/C=C2\CCn3c2nc2cc(NCCN4CCCC4)c(F)cc2c3=O)cc1`, the inhibition result in experiment [2], in experiment [3] and in experiment [4] was “Active” each time.
On to `CN1CCN(c2cc3nc4n(c(=O)c3cc2F)CC/C4=C\c2ccc(NC(=O)CN3CCN(CCO)CC3)cc2)CC1`, for which the inhibition result in experiment [2] was “Active”. For the same molecule, the result in experiment [5] was Active.
`O=C(NCCN1CCCC1)c1ccc(/C=C2\CCn3c2nc2cc(NCCN4CCCC4)c(F)cc2c3=O)cc1`: the inhibition entry in experiment [2], in experiment [3] and in experiment [4] was “Active” in each case.
As for `O=C(NCCN1CCCC1)c1ccc(/C=C2\CCn3c2nc2cc(NCCCN4CCCC4)c(F)cc2c3=O)cc1`, the inhibition result in experiment [2], in [3] and in experiment [4] was “Active” each time.
For the molecule `CN1CCN(c2cc3nc4n(c(=O)c3cc2F)CCC/C4=C\c2ccc(C(=O)NCCN3CCCC3)cc2)CC1`, the inhibition result in experiment [2] is “Active”.
Turning to `O=C(CCN1CCCC1)Nc1ccc(/C=C2\CCn3c2nc2cc(NC(=O)CCN4CCCC4)ccc2c3=O)cc1`, the Ratio in [1] amounted to 2.5. Further, the ΔTm in [6] is 8.5 °C. Also, the outcome in [5] was inactive.
`CN1CCN(c2cc3nc4n(c(=O)c3cc2F)CCC/C4=C\c2ccc(C(=O)NCCN3CCCCC3)cc2)CC1`: the inhibition entry in experiment [2] is “Active”.
In the case of `CCN(CC)CCCNC(=O)c1ccc(/C=C2\CCn3c2nc2cc(NCCN4CCCC4)c(F)cc2c3=O)cc1`, the inhibition entry in experiment [2], in [3] and in experiment [4] was “Active” throughout.
For the molecule `CN1CCN(c2cc3nc4n(c(=O)c3cc2F)CC/C4=C\c2ccc(C(=O)NCCCN3CCCC3)cc2)CC1`, the inhibition entry in [2] is “Active”.
Take `CCN(CC)CCC(=O)Nc1ccc(/C=C2\CCn3c2nc2cc(N4CCN(C)CC4)c(F)cc2c3=O)cc1`: in experiment [1], the Ratio amounted to 1.4.
For the molecule `CN1CCN(c2cc3nc4n(c(=O)c3cc2F)CCC/C4=C\c2ccc(NC(=O)CCN3CCCCC3)cc2)CC1`, in experiment [2], the inhibition result is “Active”.
In the case of `O=C(CCN1CCCCC1)Nc1ccc(/C=C2\CCn3c2nc2cc(N4CCCCC4)c(F)cc2c3=O)cc1`, in [1], the Ratio lay in the range of 1.4 to 4.3.
Regarding `CCN(CC)CCC(=O)Nc1ccc(/C=C2\CCCn3c2nc2cc(N4CCN(C)CC4)c(F)cc2c3=O)cc1`, the inhibition entry in [2] was “Active”.
Turning to `CN1CCN(c2cc3nc4n(c(=O)c3cc2F)CC/C4=C\c2ccc(C(=O)NCCCN3CCCCC3)cc2)CC1`, in [2], the inhibition result is “Active”.
As for `CCN(CC)CCC(=O)Nc1ccc(/C=C2\CCn3c2nc2cc(N4CCCCC4)c(F)cc2c3=O)cc1`, the Ratio in experiment [1] was in the range of 1.4 to 4.3.
Regarding `CN1CCN(c2cc3nc4n(c(=O)c3cc2F)CC/C4=C\c2ccc(NC(=O)CCN3CCCCC3)cc2)CC1`, the inhibition entry in experiment [2] was “Active”.
As for `CN(C)CCCNC(=O)c1ccc(/C=C2\CCn3c2nc2cc(N4CCN(C)CC4)c(F)cc2c3=O)cc1`, the inhibition entry in experiment [2] was “Active”.
As for `CN1CCN(c2cc3nc4n(c(=O)c3cc2F)CCC/C4=C\c2ccc(NC(=O)CCN3CCN(CCO)CC3)cc2)CC1`, in experiment [5], the outcome was Active.
In the case of `CCN(CC)CCCNC(=O)c1ccc(/C=C2\CCn3c2nc2cc(NCCCN4CCCC4)c(F)cc2c3=O)cc1`, the inhibition entry in [2], in experiment [3] and in [4] was “Active” throughout.
Turning to `CCN(CC)CCCNC(=O)c1ccc(/C=C2\CCn3c2nc2cc(N4CCN(C)CC4)c(F)cc2c3=O)cc1`, in experiment [2], the inhibition entry was “Active”.
As for `CCN(CC)CCNC(=O)c1ccc(/C=C2\CCCn3c2nc2cc(N4CCN(C)CC4)c(F)cc2c3=O)cc1`, the inhibition entry in experiment [2] is “Active”.
On to `CN1CCN(c2cc3nc4n(c(=O)c3cc2F)CC/C4=C\c2ccc(C(=O)NCCN3CCCCC3)cc2)CC1`, for which the Ratio in [1] was 1.4 to 4.3.
For the molecule `CN(C)CCNC(=O)c1ccc(/C=C2\CCn3c2nc2cc(N4CCN(C)CC4)c(F)cc2c3=O)cc1`, the inhibition result in [2] is “Active”. The result in experiment [5] was Active.
Turning to `CN1CCN(c2cc3nc4n(c(=O)c3cc2F)CC/C4=C\c2ccc(NC(=O)CCN3CCN(CCO)CC3)cc2)CC1`, the inhibition entry in experiment [2] is “Active”. Further, the affinity in [7], expressed as Kd, was 1.8 µM. For the same molecule, in experiment [8], the inhibition entry is “inactive”.
Take `O=C(CCN1CCCC1)Nc1ccc(/C=C2\CCn3c2nc2cc(N4CCCCC4)c(F)cc2c3=O)cc1`: the Ratio in experiment [1] was 1.4 to 4.3. The inhibition result in experiment [9] was “inactive”.
Turning to `CN1CCN(c2cc3nc4n(c(=O)c3cc2F)CC/C4=C\c2ccc(NC(=O)CCN3CCCC3)cc2)CC1`, the Ratio in experiment [1] stood at 1.6. The inhibition entry in experiment [2] is “Active”.
On to `CN1CCN(c2cc3nc4n(c(=O)c3cc2F)CC/C4=C\c2ccc(NC(=O)CN3CCCC3)cc2)CC1`, for which, in experiment [5], the result was Active.
Regarding `CN1CCN(c2cc3nc4n(c(=O)c3cc2F)CCC/C4=C\c2ccc(NC(=O)CCN3CCCC3)cc2)CC1`, the Ratio in [1] came out at 1.3.
As for `O=C(NCCCN1CCCC1)c1ccc(/C=C2\CCn3c2nc2cc(NCCCN4CCCC4)c(F)cc2c3=O)cc1`, the inhibition result in [2], in experiment [3] and in experiment [4] was “Active” each time.
For `CN1CCN(c2cc3nc4n(c(=O)c3cc2F)CC/C4=C\c2ccc(C(=O)NCCN3CCCC3)cc2)CC1`, in experiment [2], the inhibition entry was “Active”.
For `CN1CCN(c2cc3nc4n(c(=O)c3cc2F)CCC/C4=C\c2ccc(NC(=O)CN3CCN(CCO)CC3)cc2)CC1`, the Ratio in [1] was less than 1.4. Moreover, the result in experiment [5] was Active.
For `O=C(CCN1CCCC1)Nc1ccc(/C=C2\CCCn3c2nc2cc(NC(=O)CCN4CCCC4)ccc2c3=O)cc1`, the Ratio in [1] is 2.4. For the same molecule, the ΔTm in [6] worked out at 3.4 °C. Further, the affinity in experiment [7], expressed as Kd, was 22.1 µM.
